The source of these data is patent US20230398153A1, “A METHOD FOR EFFICIENT MICROGLIA REPLACEMENT” (The Board of Trustees of the Leland Stanford Junior …, priority 2020, published 2023).

One assay relates to endogenous microglia. The experiment in a line: Direct intracerebral injection of GFP bone marrow cells with or without PLX5622 pre-treatment. Type of assay: in vivo, mouse. The settings on record: 21-day PLX5622 pre-treatment; 14 days post IC injection. Here is the method:
FIG. 1. Microglia replacement after bone marrow transplantation is a slow, inefficient and variable process. (A) Schematic overview of bone marrow transplantation (HSCT). Recipient mice were received intraperitoneal (IP) injection of busulfan for 5 days at 25 mg/kg/day (i.e. 125 mg/kg total dose) and then transplanted with GFP-expressing bone marrow cells via intravenous (IV) injection. Donor chimerism in peripheral blood (PB) and brain myeloid cells was analyzed at the indicated time points. (B and C) Donor chimerism in PB leukocytes (CD45+ cells) and brain myeloid cells (CD45+CD11b+ cells) was analyzed by flow cytometry at the indicated time point. […] GFP chimerism in PB leukocytes (B) (Mean±SEM, n=5-20/time point, ***p<0.001, ns: not significant, ANOVA). GFP chimerism in brain myeloid cells (C) (Mean±SEM, n=5/time point, *p<0.05, **p<0.01, ns: not significant, ANOVA). (D) Flow cytometry analysis of GFP+bone marrow cells 14 days after direct intracerebral (IC) injection with (bottom) and without (top) PLX5622 pre-treatment of recipient mice. […] (F) Quantification of transplanted GFP+bone marrow cells in coronal brain sections. […] Horizontal bars represent mean values (n=3/group, 3 brain slices/animal were quantified. **p<0.01, ***p<0.001, Student's t-test). […] (H) Microglia chimerism was analyzed by flow cytometry 14 days post IV injection. […]

For assay [1], the system named is myeloid cells of the spinal cord. The assay is described as follows: Microglia replacement in the spinal cord after BMT+PLX protocol. Type of assay: in vivo, mouse. The settings on record: PLX5622 treated group. The text has this: FIG. 21. Efficient microglia replacement in the spinal cord following our BMT+PLX protocol.
Many CNS diseases affect primarily the spinal cord. To evaluate whether our microglia replacement protocol is truly CNS-wide we characterized the spinal cords following a replacement as described above. Indeed, when using GFP-expressing donor cells we were able to identify a high and robust chimerism of GFP-positive, transplanted cell among the myeloid cells of the spinal cord (FIG. 21),

Molecules are shown by their SMILES.

Take `COc1ncc(F)cc1CNc1ccc(Cc2c[nH]c3ncc(C)cc23)c(F)n1` [PLX5622]: the “fate of bone marrow cells injected into the brain” value in the assay on endogenous microglia was “adopted microglia-like morphologies, expressed the microglial marker Iba-1, were more numerous, and dispersed wider into the brain parenchyma”. Also, in assay [1], the “myeloid cells GFP+ in total spinal cord by flow cytometry” value is 90%.
